From US20260108513A1 (Pfizer Inc., priority 2022, published 2026)

Test system: mCRPC patients
Assay: TALAPRO-2 Part 2: safety, adverse events and supportive care (safety population)
Format: in vivo, human
Conditions: talazoparib+enzalutamide group
Text: This population was the primary population for evaluating safety.
Treatment-emergent is defined as the time between the first dose of study treatment to 28 days after the last dose of the last study treatment, or before any new antineoplastic therapy, whichever occurs first.

Compound: Cn1ncnc1[C@H]1c2n[nH]c(=O)c3cc(F)cc(c23)N[C@@H]1c1ccc(F)cc1 [talazoparib, (8S,9R)-5-fluoro-8-(4-fluorophenyl)-9-(1-methyl-1H-1,2,4-triazol-5-yl)-8,9-dihydro-2H-pyrido[4,3,2-de]phthalazin-3(7H)-one]
- median time to onset of first G≥3 anemia: 3.3 months
- recurrent G3-4 anemia: 20.6%
